# Assay results from the supplement of paper PMC10307832.
# Tests used:
# Assay in all cases: relative viability (nuclei count vs DMSO), 5 days (fraction); higher = more cells survive
# EHT 1864 + Dasatinib = compound: C1COCCN1CC2=CC(=O)C(=CO2)OCCCCCSC3=C4C=CC(=CC4=NC=C3)C(F)(F)F [EHT 1864] + Cc1nc(Nc2ncc(C(=O)Nc3c(C)cccc3Cl)s2)cc(N2CCN(CCO)CC2)n1 [Dasatinib] (partner 0.075 µM)
# Method in brief: (§1)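 Relative viability was taken as the ratio of nuclei in treated wells to nuclei in vehicle wells. Lung cancer cell lines in 1536-well plates received compounds by pin tool one day after seeding, either one drug alone or a fixed anchor-drug dose plus five library-drug doses (not always all listed) in √10 steps. Nuclei were counted on 4× images after 5 days of treatment, and values are medians of duplicate plates.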
# EHT 1864 + Alpelisib = compound: C1COCCN1CC2=CC(=O)C(=CO2)OCCCCCSC3=C4C=CC(=CC4=NC=C3)C(F)(F)F [EHT 1864] + Cc1nc(NC(=O)N2CCC[C@H]2C(N)=O)sc1-c1ccnc(C(C)(C)C(F)(F)F)c1 [Alpelisib] (partner 2 µM)
# Method in brief: as §1
# EHT 1864 + Luminespib = compound: C1COCCN1CC2=CC(=O)C(=CO2)OCCCCCSC3=C4C=CC(=CC4=NC=C3)C(F)(F)F [EHT 1864] + CCNC(=O)c1noc(-c2cc(C(C)C)c(O)cc2O)c1-c1ccc(CN2CCOCC2)cc1 [Luminespib] (partner 0.01 µM)
# Method in brief: as §1
# EHT 1864 + Tozasertib = compound: C1COCCN1CC2=CC(=O)C(=CO2)OCCCCCSC3=C4C=CC(=CC4=NC=C3)C(F)(F)F [EHT 1864] + Cc1cc(Nc2cc(N3CCN(C)CC3)nc(Sc3ccc(NC(=O)C4CC4)cc3)n2)n[nH]1 [Tozasertib] (partner 0.1 µM)
# Method in brief: as §1
Cell Line,relative viability (EHT 1864 + Dasatinib; first compound 0.04 µM),relative viability (EHT 1864 + Dasatinib; first compound 0.1265 µM),relative viability (EHT 1864 + Dasatinib; first compound 0.4 µM),relative viability (EHT 1864 + Dasatinib; first compound 1.265 µM),relative viability (EHT 1864 + Dasatinib; first compound 4 µM),relative viability (EHT 1864 + Alpelisib; first compound 0.04 µM),relative viability (EHT 1864 + Alpelisib; first compound 0.1265 µM),relative viability (EHT 1864 + Alpelisib; first compound 0.4 µM),relative viability (EHT 1864 + Alpelisib; first compound 1.265 µM),relative viability (EHT 1864 + Alpelisib; first compound 4 µM),relative viability (EHT 1864 + Luminespib; first compound 0.04 µM),relative viability (EHT 1864 + Luminespib; first compound 0.1265 µM),relative viability (EHT 1864 + Luminespib; first compound 0.4 µM),relative viability (EHT 1864 + Luminespib; first compound 1.265 µM),relative viability (EHT 1864 + Luminespib; first compound 4 µM),relative viability (EHT 1864 + Tozasertib; first compound 0.04 µM),relative viability (EHT 1864 + Tozasertib; first compound 0.1265 µM),relative viability (EHT 1864 + Tozasertib; first compound 0.4 µM),relative viability (EHT 1864 + Tozasertib; first compound 1.265 µM),relative viability (EHT 1864 + Tozasertib; first compound 4 µM)
RERF-LC-KJ,0.825,0.793,0.795,0.772,0.682,0.759,0.743,0.755,0.947,0.776,1.34,1.02,1.17,1.29,1.06,0.493,0.473,0.523,0.381,0.352
SK-LU-1,0.186,0.171,0.174,0.174,0.164,1.02,1.02,0.928,0.996,0.815,0.184,0.181,0.214,0.229,0.219,0.313,0.286,0.274,0.297,0.293
SK-MES-1,0.427,0.409,0.44,0.423,0.333,0.934,0.823,0.884,0.92,0.906,0.596,0.64,0.748,0.726,0.798,0.972,0.885,0.888,0.823,0.81
SW 1573,0.516,0.362,0.445,0.538,0.516,0.772,0.896,0.737,0.608,0.719,0.24,0.356,0.31,0.215,0.187,0.173,0.158,0.172,0.225,0.154
UMC-11,0.462,0.449,–,0.441,0.458,0.887,1.01,0.976,0.962,1.02,1.03,0.925,–,1.02,1.12,0.206,–,0.2,0.207,0.192
